A melting point compilation (Tetko et al.; mined from patent text by program, amines drawn as free bases though some values may be those of a salt)

| SMILES | melting point [°C] |
| --- | --- |
| C=CCOC(=O)c1cccc(NC(=O)NCC(=O)Nc2ccccc2C(=O)c2cccs2)c1 | 140 to 141 |
| CC(=O)c1ccc(CNC(=O)c2cccnc2Oc2ccc3nonc3c2)cc1 | 154 to 156 |
| CC1CC2C3CCC4=CC(=O)C=CC4(C)C3=CCC2(C)C1C(=O)CN1CCN(c2cc(NC3CCCC3)nc(NC3CCCC3)n2)CC1 (stereo not drawn) | 180 to 185 |
| COc1ccc2cc3c(cc2c1)C(=O)OC3=O | 238 to 240 |
| CC12CCC(=O)CC1CCC1C2CCC2(C)C(O)C(N=[N+]=[N-])CC12 (stereo not drawn) | 165 to 167 |
| COC(=O)c1cc([N+](=O)[O-])ccc1Nc1ccc(CCc2ccc(Cl)c(Cl)c2)cc1 | 107 to 108 |
| CCc1cc(OCc2ccccc2)c2c(Cl)cccc2n1 | 78 to 80 |
| CCCCOC(=O)C(O)C1OC(n2cnc3c(N)ncnc32)C(O)C1O (stereo not drawn) | 167 |
| CC1=C(c2ccc(CC(C)NCC(O)c3cccc(Cl)c3)cc2)CCC(=O)N1 (stereo not drawn) | 103 to 106 |
| Cn1nnnc1-c1cn(C)c2ccc(F)cc2c1=O | 260 to 261 |
| CN1Cc2c(-c3noc(CNCc4ccccc4)n3)ncn2-c2ccccc2C1=O | 88 to 92 |
| Cc1ccc(S(F)(F)(F)(F)F)cc1[N+](=O)[O-] | 29 to 30 |
| CN1CCN(c2cc(N)ccc2Br)CC1 | 120 to 122 |
| COc1ccc(CCCn2ccnc2S)cc1 | 108 to 109 |
| O=C(O)CCCC1(c2ccc(F)cc2)OCCO1 | 65 to 67 |
| CN(C)Cc1cnc2cc(NC(=O)c3ccc(-c4ccc(Cl)cc4)cc3)ccc2c1 | 236 to 238 |
| COC(c1nnco1)c1ccccc1COc1ccc(Cl)cc1C (stereo not drawn) | 68 to 70 |
| Cc1cc(C)c(-n2nnc3c(-c4ccccc4C(F)(F)F)nc(C)nc32)c(C)c1 | 139 |
| CC(=O)OC(CBr)Cc1c(O)ccc2ncccc12 (stereo not drawn) | 146 to 148 |
| O=[N+]([O-])c1cc(Br)cc(OCCF)c1 | 59 to 61 |
| O=C1C=C(NC(=O)C(=O)c2cn(Cc3ccc(Cl)cc3)c3cc(Cl)ccc23)CO1 | 255 to 257 |
| CN(C)Cc1ccc(CSCCNC2=NS(=O)C(S(C)(=O)=O)=C2N)o1 (stereo not drawn) | 134 to 137 |
| Cc1cc(O)nc2c1CCCC2 | 250 to 252 |
| [N-]=[N+]=CC(=O)C(Cc1ccc(F)cc1)NC(=O)OCc1ccccc1 (racemic) | 97 |
| O=C(C1=C(c2ccccc2)c2ccc(O)cc2CC1)c1ccc(O)cc1 | 205 to 207 |

| SMILES | melting point [°C] |
| --- | --- |
| FC(F)(F)c1cccc(N=C2SCCN2C(=S)Nc2cccc(C(F)(F)F)c2)c1 | 116 to 117 |
| O=C(N1CCOCC1)n1nnc2cc(Cl)c(Cl)cc21 | 145 |
| CN(C)C=NS(=O)(=O)c1cc(CCNC(=O)C(F)(F)F)ccc1-c1ccco1 | 150 |
| COc1c(C(=O)O)cc([N+](=O)[O-])c2ccccc12 | 102 to 104 |
| CCc1ccc2c(c1)NC(=O)C2=O | 128 to 136 |
| COc1ccccc1-c1noc2ccc([N+](=O)[O-])cc12 | 170 to 171 |
| CC(C)(C)OC(=O)NCCN(CC(=O)O)C(=O)OCc1ccccc1 | 64.5 to 85 |
| CC(O)c1cc(C#C[Si](C)(C)C)c(O)c(Cl)n1 (stereo not drawn) | 97 to 98 |
| N#Cc1sc2c(Cl)cccc2c1Cl | 124 to 128 |
| C=CCCc1ccc(C(=O)O)c(O)n1 | 151 to 155 |
| Nc1cc(-c2ccnc3c(C(=O)c4cccs4)cnn23)ccc1F | 241 to 242 |
| c1ccc(Nc2ncnc3ncccc23)cc1 | 258 |
| Nc1nnc(CCCCCBr)s1 | 128 to 130 |
| CCOc1ccc2[nH]c(SCc3cccn4ccnc34)nc2c1 | 157 to 160 |
| CCOC(=O)C=C1CSC2=C1SCC=NC2 | 86 to 87 |
| O=C(Cc1ccccc1Br)NC1CCC1 | 159 to 161 |
| O=c1cc(-c2ccc(O)cc2[N+](=O)[O-])oc2ccccc12 | 277 to 279 |
| COC1CN(c2ccc(NC(=O)OCc3ccccc3)cc2F)C1 | 95 to 96.5 |
| CN(Cc1ccccc1)c1cc(=S)ss1 | 138 to 140 |
| O=C(O)C#Cc1ccccn1 | 130 |
| O=C(O)c1cccc(C(=O)O)c1Nc1cccc(I)c1 | 214 to 216 |
| CC(C)(N)c1ccc(-c2nc(Nc3ccc(-n4ccnc4)cc3)ncc2C#N)cc1 | 232 to 233 |
| Cc1ccc(-c2[nH]c(C(C)(C)C)nc2C(=O)Nc2nccs2)cc1 | 218 |
| Cn1nnc2cc(C(=O)NC3CCCn4c3nc(-c3ccncc3)cc4=O)ccc21 (racemic) | 267 to 269 |

Now from value to compound:

| melting point [°C] | SMILES |
| --- | --- |
| 139 to 140 | CC(C)C(=O)N1CCC(C(CS(=O)(=O)c2ccc(Oc3ccc(OC(F)(F)F)cc3)cc2)N(O)C=O)CC1 (stereo not drawn) |
| 180 to 181 | Cc1c(NC(=O)c2ccc(OCc3ccccc3)cc2F)ccc2cc(CN3CCCCC3)cnc12 |
| 82 to 84 | COc1ccc(C(=O)NCCn2c(C)ccc2C)cc1OC |
| 104 to 108 | Clc1c2ccccc2nc2cc(-c3ccccc3)ccc12 |
| 66 | CC(=O)OC1CSC(Oc2cc(F)ccc2-c2cccnc2)C(OC(C)=O)C1OC(C)=O (stereo not drawn) |
| > 300 | CC(=O)Nc1ccc2nc(-c3cc(C)c(OCCO)c(C)c3)[nH]c(=O)c2c1 |
| 152 | Cc1cc(-c2cc(F)c(F)cc2-c2ccc(S(N)(=O)=O)cc2)ccc1F |
| 88 to 90 | COc1ccc(/C(C)=C/c2ccc(CO)cc2)cc1C(C)(C)C |
| 138 to 140 | Cc1ccc(NC(=S)Nc2ncccc2OCc2c(F)cccc2Cl)cc1 |
| 82 to 84 | CCOC(=O)CCC(C#N)(c1ccccc1)C(C)C (stereo not drawn) |
| 163 | NC(=O)c1snnc1C1CC1 |
| 70 | O=C(O)CCOc1cccc(CNC(=O)C2Cc3ccccc3N2S(=O)(=O)c2ccc(-c3cccc(C(F)(F)F)c3)cc2)c1 (stereo not drawn) |
| 122 | N=C(N)NC(=O)C[C@H]1c2cc(C(F)(F)F)ccc2C(=O)N1CC(F)(F)F |
| 206 to 211 | CN1C(=O)N2C(=NC1(C)C)N(C(=O)Nc1ccc(Cl)cc1)c1ccccc12 |
| 116 | Cc1cccc(-c2ccccc2NC(=N)N(C)C)c1 |
| 79 to 80 | CCCCCCCCCCCCCCCCCCNC(=O)OC[C@H]1CC[C@@H](CO)O1 (relative stereo) |
| 194 | CN(C)S(=O)(=O)c1ccc(-c2ccc(-c3ccc(S(=O)(=O)N(C)C)c(S)c3)cc2)cc1S |
| 60 to 64 | Cc1ccc(OC(C)(C)C=O)c(C#N)c1 |
| 142 to 144 | Cc1ccc(N2C(=O)N(CC(=O)Nc3c(C(C)C)cccc3C(C)C)C(=O)C23CCC(O)CC3)cc1 (stereo not drawn) |
| 93.5 to 95.6 | CC(C)CCN(CC(O)C(Cc1ccccc1)NC(=O)C(CC(N)=O)NC(=O)c1ccc2ccccc2n1)C(=O)NC(C)(C)C (stereo not drawn) |
| 132 to 134 | COc1ccc([C@H]2NC(SC)=N[C@H]2c2ccc(OC)cc2)cc1 |
| 122 to 123 | CC(C)N1C(=O)c2ccc(Cl)nc2C1=O |
| 260 to 261 | CCOc1cc2c(c3c1[nH]c1ccc(O)cc13)C(=O)N(CCN(C)C)C2=O |
| 275 to 280 | O=C1c2ccc(Sc3ccc4c(c3)C(=O)N(c3ccccc3)C4=O)cc2C(=O)N1c1ccccc1 |
| 119 to 123 | CC(C)(C)OC(=O)c1ncn2c1COc1ccccc1-2 |
| 115 to 117 | COC1=CC(=O)NCC1 |
| 212 to 215 | O=C(O)CCSCC(=O)c1ccc2[nH]c(=O)[nH]c2c1 |

| melting point [°C] | SMILES |
| --- | --- |
| 141 to 142 | CNC(=O)C1=CC(CF)(CF)Oc2cc(Cl)c(Cl)cc21 |
| 135 to 136 | COC(=O)c1cccc(Cl)c1NC(C)=O |
| > 270 | Nc1cc(-n2cc(C(=O)O)c(=O)c3cc(F)c(Cl)nc32)ccc1F |
| 120 to 121 | CCNC(=O)c1c([Si](C)(C)C)ccc(C(F)F)c1Cl |
| 242 to 244 | COC(=O)NN=Cc1cnc2ccccc2n1 |
| 132 to 136 | O=C1c2ccccc2-c2ncccc21 |
| 290 to 300 | O=C(O)c1ccc(OC(=O)c2cccc(C(=O)Oc3ccc(C(=O)O)cc3)c2)cc1 |
| 140 | S=C(OCc1ccc(Cl)c(Cl)c1)SC(Cn1ccnc1)c1ccc(Cl)cc1Cl (stereo not drawn) |
| 157 to 158 | Fc1ccc(N2CCN(CCCOc3ccc(-c4nnco4)cc3)CC2)cc1 |
| 200 to 206 | N#Cc1c[nH]c(-c2ccc3ccccc3c2)c1 |
| 152 | CC(=O)NCCSc1c(Cl)cc([N+](=O)[O-])c(C)c1[N+](=O)[O-] |
| 104 to 106 | O=C(CCl)N(CCc1[nH]c2ccccc2c1-c1ccccc1)CC1CC1 |
| 122 to 124 | COc1cc(C(C)=O)cc(OC)c1OCCCC(=O)O |
| 228 to 230 | O=C1CC(=CCl)c2c(O)cc(O)cc2O1 |
| 68 to 70 | CN1CCN(c2nn(CC3CC3)c3ccccc23)CC1 |
| 63 to 65 | CCCc1c(OCCCCCC(=O)NCCSc2ccncc2)ccc(C(C)=O)c1O |
| 125 to 126 | CCOC(=O)C(C)(C)Oc1ccc(OCCn2c(=O)sc3cc(C(=O)c4cccc(Cl)c4)ccc32)cc1 |
| 164 to 165 | CC(=O)NCCn1cccc1C1=CC(=O)c2ncccc2C1=O |
| 140 to 141 | COc1ccc(-c2c(SCc3ccncc3)oc3cc(OC)ccc3c2=O)cc1 |
| 114 to 120 | O=C1NC2(CCCC2)CCCC1(Cl)Cl |
| 130 to 133 | COc1ccccc1OCC(O)CN1CCC(N2CCCNC2=O)CC1 (stereo not drawn) |
| 222 to 224 | CC(=O)NCCn1ccc2ncnc(Nc3ccc(Oc4cccc5sncc45)c(Cl)c3)c21 |
| 269 to 270 | O=C(O)c1cnc(NC(=O)C(CC2CCCC2)c2ccc(Cl)c(Cl)c2)s1 (stereo not drawn) |
| 165 to 169 | CCOC(=O)C(C#N)=C1CCN(c2ccc(N3C[C@H](CNC(C)=O)OC3=O)cc2F)CC1 |
| 119 to 120 | Cc1cn(-c2cccc([N+](=O)[O-])c2)cn1 |
| 175 | CC(=O)c1cccc2c1[C@@H](NC(=O)c1ccc(F)cc1)[C@H](O)C(C)(C)O2 (relative stereo) |
| 181 | O=c1[nH]c2ccc(Cl)cc2n1CCCN1CCC(O)(c2ccc(Cl)cc2)CC1 |
